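In this assay, cells in 96-well plates receive the compound at five concentrations for 48 hours. Endpoints are linearly interpolated between the surrounding concentrations. GI50 is the concentration that inhibits growth by half. Definition used: TGI = concentration required for complete inhibition of growth.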
Tests used:
Experiment in all cases: NCI tumour cell line growth inhibition, 48 h
KM12 colon = test system: KM12 colon
MALME-3M melanoma = test system: MALME-3M melanoma
NCI-H226 lung = test system: NCI-H226 lung
NCI/ADR-RES ovarian = test system: NCI/ADR-RES ovarian
SN12C renal = test system: SN12C renal
SNB-19 CNS = test system: SNB-19 CNS
UACC-62 melanoma = test system: UACC-62 melanoma
RPMI-8226 leukemia = test system: RPMI-8226 leukemia

Compound	TGI (KM12 colon)	TGI (MALME-3M melanoma)	TGI (NCI-H226 lung)	TGI (NCI/ADR-RES ovarian)	TGI (SN12C renal)	TGI (SNB-19 CNS)	TGI (UACC-62 melanoma)	GI50 (KM12 colon)	GI50 (MALME-3M melanoma)	GI50 (NCI-H226 lung)	GI50 (RPMI-8226 leukemia)	TGI (RPMI-8226 leukemia)	GI50 (SN12C renal)	GI50 (SNB-19 CNS)	GI50 (UACC-62 melanoma)	GI50 (NCI/ADR-RES ovarian)
CCCc1nc(Cl)nc(Cl)c1Cl	2.77 µM	2.46 µM	8.97 µM	> 22.4 µM	2.13 µM	2.57 µM	2.07 µM									
CCOC(=O)c1sc(-c2ccc(OS(=O)(=O)C[C@]34CCC(CC3=O)C4(C)C)c(C=O)c2)nc1C	3.54 µM	2.65 µM	2.72 µM		4.58 µM	2.15 µM	1.76 µM	1.3 µM	1.08 µM	0.943 µM	0.822 µM	3.19 µM	1.41 µM	0.898 µM	0.745 µM	
COc1ccc(-c2nc(-c3nc4cc(Cl)c(F)cc4[nH]3)c3ccccn23)cc1	> 100 µM	> 100 µM	> 100 µM	> 100 µM	> 100 µM	> 100 µM	> 100 µM	4.56 µM	20 µM	14.5 µM	3.02 µM	> 100 µM	11.2 µM	8.34 µM	6.05 µM	5.5 µM
COc1ccc(Nc2nc(Nc3cc(C)[nH]n3)c3cc(OC)c(OC)cc3n2)cc1	2.09 µM	3.19 µM				3.18 µM	3.39 µM	0.61 µM	1.65 µM		0.278 µM	0.782 µM		1.56 µM	1.71 µM	
C=CC(C)(C)n1cc(C2=C(O)C(=O)C(c3cn(C(C)(C)C=C)c4ccccc34)=C(O)C2=O)c2ccccc21	13.5 µM	11.1 µM	14.3 µM	6.72 µM	7.03 µM	7.38 µM	4.33 µM					40.2 µM				
Clc1ccc(/C=C/c2ccc3ccccc3n2)cc1	20.6 µM	71.8 µM	> 100 µM	29.4 µM	> 100 µM	> 100 µM	> 100 µM	1.42 µM	0.934 µM	25 µM	0.482 µM	18.6 µM	2.06 µM	1.56 µM	1.47 µM	6.27 µM
C=C1C(=O)O[C@H]2[C@H]1CC/C(Cn1cc(-c3ccc(N)cc3)nn1)=C\CC[C@@]1(C)O[C@@H]21	26.9 µM	5.42 µM	13.2 µM	38.2 µM	15.1 µM	41.1 µM		11.4 µM	2.18 µM	3.34 µM	2.75 µM	10.4 µM	3.48 µM	12.7 µM		14.5 µM
O=C(NN1C(=O)CSC1c1cccc(Cl)c1)C(O)c1ccccc1 (stereo not drawn)	> 100 µM	> 100 µM	> 100 µM		> 100 µM	> 100 µM	> 100 µM	90.4 µM	> 100 µM	81 µM	23.1 µM	> 100 µM	> 100 µM	> 100 µM	23.1 µM	
CO[C@H]1/C=C/O[C@@]2(C)Oc3c(C)c(O)c4c(O)c(c(/C=N/N5CCN(C)CC5)c(O)c4c3C2=O)NC(=O)/C(C)=C\C=C\[C@H](C)[C@H](O)[C@@H](C)[C@@H](O)[C@@H](C)[C@H](OC(C)=O)[C@@H]1C	> 100 µM	> 100 µM		> 100 µM	> 100 µM		> 100 µM					> 100 µM				
C=C1C(=O)O[C@H]2[C@H]1CC/C(COC(=O)NCc1ccc(Cn3c(=O)sn(CCCCC)c3=O)cc1)=C\CC[C@@]1(C)O[C@@H]21	4.94 µM	3.4 µM	27.6 µM	46.5 µM	3.72 µM	17.5 µM	3.08 µM	2.23 µM	1.61 µM	10.7 µM			1.71 µM	5.06 µM	1.59 µM	14.4 µM
Cn1cc(-c2cc(-c3cn(C)c4ccc(Cl)cc34)[nH]n2)c2cc(Cl)ccc21	22.9 µM	67.4 µM	> 100 µM	6.59 µM		20.1 µM	3.35 µM	3.45 µM	9.64 µM	5.29 µM	6.79 µM	> 100 µM		4.09 µM	1.63 µM	2.25 µM
FC(F)(F)c1ccc(-c2nn3ncccc3c2-c2ccnc(Nc3ccc4c(c3)OCCO4)n2)cc1	> 25 µM	> 25 µM	> 25 µM	> 25 µM	> 25 µM	> 25 µM	> 25 µM	10.7 µM	7.29 µM	> 20.5 µM	5.97 µM	> 20.4 µM	9.77 µM	> 25 µM	10 µM	9.6 µM
CC(NC(=O)Cc1ccc(C(F)(F)P(=O)(OCc2ccc([N+](=O)[O-])o2)N(C)CCCCCl)cc1)c1ccc(OCC2CCCCC2)c(C(N)=O)c1 (stereo not drawn)	10.2 µM	16.3 µM	15.1 µM	> 93.4 µM	10.9 µM	29.7 µM	10.2 µM	3.32 µM	4.62 µM	5.52 µM	1.14 µM	3.86 µM	5.35 µM	8.97 µM	4.97 µM	6.51 µM
CCCCCCCCCc1ccc(OCCOCCOCCOCCOCCOCCOCCOCCOCCO)cc1	4.02 µM	1.63 µM	1.77 µM	3.94 µM	1.59 µM	2.73 µM	1.25 µM	0.598 µM	0.646 µM	0.561 µM	0.0368 µM	1.76 µM	0.61 µM	0.617 µM	0.379 µM	0.268 µM
Cc1cc(CCl)c(C)cc1CCl	2.42 µM	5.46 µM	16 µM	7.77 µM	13.6 µM	17.6 µM	7.59 µM	0.845 µM	1.96 µM	2.89 µM	1.63 µM	6.9 µM	0.605 µM	3.75 µM	1.93 µM	2.07 µM
COc1cc(C2=NN(C(C)=O)C(c3cc(OC)c(OC)c(OC)c3)C2)ccc1O (stereo not drawn)	> 100 µM		> 100 µM	> 100 µM	> 100 µM	> 100 µM	> 100 µM	0.32 µM		23.6 µM	0.311 µM	4.03 µM	0.882 µM	0.491 µM	0.471 µM	0.283 µM
CCn1cc(/C=C2\Oc3cc(OCC#N)ccc3C2=O)c2cc(OC)ccc21	> 100 µM	> 70.7 µM	> 44.3 µM	> 32.9 µM	> 100 µM	> 69.2 µM	> 53.4 µM	0.546 µM		6.65 µM	0.214 µM	> 72.5 µM	0.711 µM	0.385 µM	0.171 µM	0.161 µM
Cc1ccc(S(=O)(=O)c2nc(-c3ccccc3)oc2S(C)(=O)=O)cc1	27.2 µM	3.68 µM	15 µM	45 µM	3.95 µM	23.2 µM	3.98 µM	13 µM	1.9 µM	3.31 µM	2.33 µM	5.88 µM	1.92 µM	11.2 µM	1.89 µM	7.43 µM
COc1ccc(-c2cnnn2-c2nonc2-n2cccc2)cc1OC	> 100 µM	> 100 µM	> 100 µM	5.99 µM	> 100 µM	> 100 µM	> 100 µM	2.73 µM	3.86 µM	16.2 µM	4.85 µM	> 100 µM	5.71 µM	13.2 µM	5.42 µM	2.02 µM
Nc1c(C(=O)c2cccc(C#CCN3CCCCC3)c2)cnn1-c1ccc(F)cc1	> 25 µM	> 25 µM	> 25 µM	> 25 µM	> 25 µM	> 25 µM	> 25 µM	18.7 µM	> 25 µM	> 23.4 µM	> 17 µM	> 25 µM	24.4 µM	> 25 µM	> 25 µM	> 19.9 µM
CC(=O)NC1(NC(C)=O)C2CC(C1Cc1ccccc1)C(C)(C)C2C (stereo not drawn)	> 100 µM	> 100 µM	> 100 µM		> 100 µM	> 100 µM	> 100 µM									
C/C(=C(/c1ccccc1)c1ccc(OCC(O)CNCCN2CCOCC2)cc1)c1ccccc1 (stereo not drawn)	8.33 µM	3.04 µM	29.3 µM	17.2 µM	18.5 µM	17.8 µM	3.82 µM	2.73 µM	1.62 µM	12.1 µM			5.08 µM	4.77 µM	1.93 µM	4.92 µM
CC(C)(C)NCC(O)COc1c(Br)c(Br)c(Br)c2c1OC(C)(C)C2 (stereo not drawn)	3.4 µM	3.24 µM			3.43 µM		3.32 µM	1.82 µM	1.71 µM		1.45 µM	3.09 µM	1.87 µM		1.88 µM	
CCN1[C@@H](C(=O)NC23CCC(C(=O)O)(CC2)CC3)[C@H](c2cccc(Cl)c2F)[C@]2(C(=O)Nc3cc(Cl)ccc32)C12CCCCC2	12.7 µM	1.18 µM		42.5 µM	19.4 µM	15.2 µM	2.24 µM	3.34 µM	0.0655 µM		2.33 µM	6.61 µM	3.67 µM	3.56 µM	0.0372 µM	5.65 µM

— PubChem BioAssay (NCI)
